Results published in PMC5578373, “Inhibitory Kappa B Kinase α (IKKα) Inhibitors That Recapitulate Their Selectivity in Cells against Isoform-Related Biomarkers” (Journal of Medicinal Chemistry, 2017).
Where two headings read alike, the source gives them in different places.

What was measured:
[1] = biological target: T1, IKKα (Homo sapiens, UniProt O15111); assay: DELFIA kinase assay, IKKα; type: biochemical; details: for IKKα inhibitory activity: SAR discussion; for Ki: apparent Ki (Cheng–Prusoff), 40 μM ATP, three independent experiments, read-out: IKKα (Ki ± SEM μM)
T1 construct: purchased Millipore, Dundee, UK
T1 sequence (O15111 1-745): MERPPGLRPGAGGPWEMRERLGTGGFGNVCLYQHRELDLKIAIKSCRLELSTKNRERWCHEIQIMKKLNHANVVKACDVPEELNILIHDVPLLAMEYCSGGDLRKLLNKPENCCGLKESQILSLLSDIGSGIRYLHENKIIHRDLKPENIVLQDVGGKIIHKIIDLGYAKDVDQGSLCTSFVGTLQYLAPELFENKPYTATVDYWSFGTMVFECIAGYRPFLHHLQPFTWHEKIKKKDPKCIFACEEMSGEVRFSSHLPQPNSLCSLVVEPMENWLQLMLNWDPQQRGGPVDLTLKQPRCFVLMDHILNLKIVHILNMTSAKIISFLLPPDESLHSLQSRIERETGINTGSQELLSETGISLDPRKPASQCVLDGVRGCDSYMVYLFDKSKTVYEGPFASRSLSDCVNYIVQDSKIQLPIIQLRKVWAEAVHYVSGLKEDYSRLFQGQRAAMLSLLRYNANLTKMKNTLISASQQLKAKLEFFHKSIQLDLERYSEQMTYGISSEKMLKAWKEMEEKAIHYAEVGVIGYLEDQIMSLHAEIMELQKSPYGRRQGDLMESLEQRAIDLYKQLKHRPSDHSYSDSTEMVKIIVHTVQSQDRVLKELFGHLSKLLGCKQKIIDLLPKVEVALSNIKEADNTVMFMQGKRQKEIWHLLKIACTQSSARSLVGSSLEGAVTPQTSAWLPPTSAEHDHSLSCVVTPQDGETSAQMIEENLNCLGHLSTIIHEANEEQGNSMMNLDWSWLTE

[2] = biological target: T2, IKKβ (Homo sapiens, UniProt O14920); assay: DELFIA kinase assay, IKKβ; type: biochemical
T2 construct: purchased Millipore, Dundee, UK
T2 sequence (O14920 1-756): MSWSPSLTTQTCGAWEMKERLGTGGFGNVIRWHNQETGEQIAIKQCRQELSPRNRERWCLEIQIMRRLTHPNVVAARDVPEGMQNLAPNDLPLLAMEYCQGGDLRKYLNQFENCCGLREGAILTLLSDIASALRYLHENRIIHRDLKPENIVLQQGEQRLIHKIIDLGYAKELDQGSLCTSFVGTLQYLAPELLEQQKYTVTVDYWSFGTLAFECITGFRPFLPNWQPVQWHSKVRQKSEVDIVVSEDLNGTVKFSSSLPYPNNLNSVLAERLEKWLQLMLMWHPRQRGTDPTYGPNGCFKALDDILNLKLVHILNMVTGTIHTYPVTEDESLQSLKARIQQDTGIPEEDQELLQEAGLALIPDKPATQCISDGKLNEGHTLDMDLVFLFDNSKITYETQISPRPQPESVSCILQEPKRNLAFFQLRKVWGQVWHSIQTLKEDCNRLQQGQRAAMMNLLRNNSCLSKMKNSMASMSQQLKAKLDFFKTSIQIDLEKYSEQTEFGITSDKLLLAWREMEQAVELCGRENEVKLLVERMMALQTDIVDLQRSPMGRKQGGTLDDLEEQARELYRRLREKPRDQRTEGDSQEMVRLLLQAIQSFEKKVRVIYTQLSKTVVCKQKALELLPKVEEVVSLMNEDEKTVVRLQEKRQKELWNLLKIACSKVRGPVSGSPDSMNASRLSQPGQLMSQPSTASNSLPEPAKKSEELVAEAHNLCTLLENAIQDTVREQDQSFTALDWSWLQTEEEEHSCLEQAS
Text: To identify hits that could be developed to exploit the differences between the two isoforms, we screened our in-house compound library compiled of fragments designed to target the common hinge-binding motif found in protein kinases. Using a DELFIA kinase assay kit with minor modifications[29] to measure IKKα and IKKβ inhibitory activity, we identified 2-amino-4-chloro-5-cyanopyrrolo[2,3-d]pyrimidine 4 as our primary hit (Table 1). On the basis of the assumption that the 2-aminopyrrolo[2,3-d]pyrimidine core of compound 4 was binding at the hinge of IKKα, we varied substitution at the 4-position widely. Differences in bulk and polar functionality were incorporated to exploit the greater flexibility in the IKKα ATP binding site and the position of the Asn28 side chain at the back of the pocket.
IKKα and IKKβ inhibitory activity was determined using a dissociation enhanced ligand fluorescent immunoassay (DELFIA) based on the protocol of HTScan IKKβ kinase assay (Cell Signaling Technology, USA).
Recombinant IKKα or IKKβ, 37 nM (Millipore, Dundee, UK), was incubated with IκB-α (Ser32) (New England Biolabs, Hitchin, UK), biotinylated peptide substrate (0.375 μM), and 40 μM ATP in assay buffer (40 mM Tris-HCl (pH 7.5), 20 mM MgCl2, EDTA 1 mM, DTT 2 mM, and BSA 0.01 mg/mL) in a V-well 96-well plate in the presence and absence of test compound. The assay plate was incubated for 60 min at 30 °C, after which the kinase reaction was quenched by the addition of 50 mM EDTA, pH 8. The resulting mixture was transferred to a streptavidin-coated 96-well plate (PerkinElmer, Beaconsfield, UK) and incubated for 1 h at 30 °C to immobilize the substrate peptide. After three washes with wash buffer (0.01 M phosphate buffered saline (PBS), 0.05% Tween-20, pH 7.4), a primary antibody against the phosphorylated substrate (phospho-IκB-α) (Ser32/36) (5A5) mouse mAb (New England Biolabs, Hitchin, UK) (1:1000 dilution with 1% bovine serum albumin (BSA) in wash buffer) was added and incubated at 37 °C for 2 h.
After a further three washes, a secondary europiated antibody (Eu–N1 labeled antimouse IgG, (PerkinElmer, Beaconsfield, UK) diluted 1:500 in 1% BSA/wash buffer) was added and incubated at 30 °C for 30 min. After a further five washes, DELFIA enhancement solution (PerkinElmer, Beaconsfield UK) was added and allowed to incubate for 10 min at room temperature, protected from light, to facilitate the chemifluorescent detection. The relative fluorescence units (RFU) signal were measured on a Wallac Victor 1420 multilabel counter (PerkinElmer, Beaconsfield, UK) in time-resolved fluorescence mode. The counter was set at an excitation wavelength of 340 nm with a 400 μs delay before detecting emitted light at 615 nm. The apparent Ki of the phosphorylated substrate was calculated for each compound using the Cheng–Prusoff equation.

[3] = apparent Ki (Cheng–Prusoff), 40 μM ATP, three independent experiments, read-out: IKKβ (Ki ± SEM μM)

Row | Compound | IKKα inhibitory activity [1] | further results
1 | 2-Amino-4-(cyclohexylmethylamino)-7H-pyrrolo[2,3-d]pyrimidine-5-carbonitrile [Compound 10] |  | Ki [1]: > 30 µM; Ki [2, 3]: > 30 µM
2 | 2-Amino-4-(3-hydroxypropylamino)-7H-pyrrolo[2,3-d]pyrimidine-5-carbonitrile [Compound 23] |  | Ki [1]: 12.1 ± 6.3 µM; Ki [2, 3]: > 30 µM
3 | N#Cc1c[nH]c2nc(N)nc(N3CCC(O)C3)c12 (stereo in doubt) [Compound 25, (R)-2-Amino-4-(3-hydroxypyrrolidin-1-yl)-7H-pyrrolo[2,3-d]pyrimidine-5-carbonitrile] | active and selective against IKKα | 
4 | N#Cc1c[nH]c2nc(N)nc(NCc3ccccc3)c12 [Compound 14, 2-Amino-4-(benzylamino)-7H-pyrrolo[2,3-d]pyrimidine-5-carbonitrile] |  | Ki ([2]; supplementary CSV, read-out: IKKbeta Ki (?M)): 19 µM
5 | N#Cc1c[nH]c2nc(N)nc(NC3CCCCC3)c12 [Compound 9, 2-Amino-4-(cyclohexylamino)-7H-pyrrolo[2,3-d]pyrimidine-5-carbonitrile] |  | increase in potency against IKKα ([1]; from methylamine analogue 7 to cyclohexylamine derivative 9): 5 fold
6 | N#Cc1c[nH]c2nc(N)nc(N3CCCCC3)c12 [Compound 17, 2-Amino-4-(piperidin-1-yl)-7H-pyrrolo[2,3-d]pyrimidine-5-carbonitrile] | active | 
7 | N#Cc1c[nH]c2nc(N)nc(N3CC[C@@H](O)C3)c12 [Compound 24, (R)-2-Amino-4-(3-hydroxypyrrolidin-1-yl)-7H-pyrrolo[2,3-d]pyrimidine-5-carbonitrile] | inactive | 
8 | 4-((2-Amino-5-cyano-7H-pyrrolo[2,3-d]pyrimidin-4-yl)amino)benzoic acid [Compound 12] |  | Ki [1]: > 30 µM; Ki [2, 3]: > 30 µM
9 | N#Cc1c[nH]c2nc(N)nc(N[C@H]3CC[C@H](O)CC3)c12 [Compound 28, 2-Amino-4-((1R,4R)-4-hydroxycyclohexylamino)-7H-pyrrolo[2,3-d]pyrimidine-5-carbonitrile] | active and selective against IKKα | 
10 | N#Cc1c[nH]c2nc(N)nc(N3CCC(S(N)(=O)=O)CC3)c12 [Compound 18, 1-(2-Amino-5-cyano-7H-pyrrolo[2,3-d]pyrimidin-4-yl)piperidine-4-sulfonamide] | active | 
11 | Nc1nc(-c2ccc(S(N)(=O)=O)cc2)c2cc[nH]c2n1 [Compound 64, 4-(2-Amino-7H-pyrrol[2,3-d]pyrimidin-4-yl)benzenesulfonamide] |  | reduction of activity against IKKα ([1]; relative to 48 (absence of 5-cyano group)): more than 30 fold
12 | N#Cc1c[nH]c2nc(N)nc(N(CCO)C3CCCCC3)c12 [Compound 29, 2-Amino-4-(cyclohexyl(2-hydroxyethyl)amino)-7H-pyrrolo[2,3-d]pyrimidine-5-carbonitrile] | inactive | 

More lines, main results first:

Row | IKKα inhibitory activity [1] | Compound | further results
13 | attenuated all IKKα inhibitory activity | Nc1nc(NC2CCCCC2)c2c(C(F)(F)F)c[nH]c2n1 [Compound 70, N^4-Cyclohexyl-5-(trifluoromethyl)-7H-pyrrolo[2,3-d]pyrimidine-2,4-diamine] | 
14 | inactive | Nc1nc(Cl)c2cc[nH]c2n1 [Compound 63] | 
15 | active and selective | N#Cc1c[nH]c2nc(N)nc(N[C@@H]3CC[C@@H](O)[C@H]3O)c12 (relative stereo) [Compound 30, 2-Amino-4-((1RS,2SR,3RS)-2,3-dihydroxycyclopentylamino)-7H-pyrrolo[2,3-d]pyrimidine-5-carbonitrile] | 
16 | inactive | N#Cc1c[nH]c2nc(N)nc(-c3cccc(C(N)=O)c3)c12 [Compound 55, 3-(2-Amino-5-cyano-7H-pyrrolo[2,3-d]pyrimdin-4-yl)benzamide] | IKKβ inhibitory activity ([2]; SAR discussion): inactive
17 | attenuated all IKKα inhibitory activity | NC(=O)c1c[nH]c2nc(N)nc(N[C@H]3CC[C@H](O)CC3)c12 [Compound 71, 2-Amino-4-((1R,4R)-4-hydroxycyclohexylamino)-7H-pyrrolo[2,3-d]pyrimidine-5-carboxamide] | 
